Converted amounts (≈) assume the structure as drawn. Read-outs that look alike come from different tables or passages of the source.
Experiments:
[1] = tested on: HCT-116 (colorectal carcinoma); assay: Cell viability assay (Cell Titer-Glo), HCT-116; assay type: cell-based, human; details: read-out: IC50 (μM) HCT-116
Protocol: (§1) Cells were grown in media supplemented with fetal bovine serum (FBS) and antibiotics ([…] and 100 U/mL streptomycin). Specifically, experiments were performed using the following cell lines and media compositions: HeLa (cervical adenocarcimona) and A549 (lung carcinoma) were grown in RPMI-1640+10% FBS; HCT-116 (colorectal carcinoma) was grown in DMEM+10% FBS; DU-145 (prostate carcinoma) and MCF7 (breast adenocarcinoma) were grown in EMEM+10% FBS. Cells were incubated at 37° C. in a 5% CO2, 95% humidity atmosphere.
(§2) Cells were plated at 2000 cells/well into duplicate assay plates in 50 L media into 384-well white, opaque, tissue-culture treated plates and allowed to adhere overnight at 37° C./5% CO2. Compounds were solubilized in DMSO as 1000× stocks and 100 nl was pin-transferred to cells (V&P pin tool mounted on Tecan Freedom Evo MCA96). Compounds were tested in 10-pt, 2-fold dilution with concentrations tested between 1 nM-20 μM for most compounds, except where indicated. DMSO (32 wells of 384-wells) was used as vehicle control. After 72 hours of incubation at 37° C./5% CO2, 10 L Cell Titer-Glo (Promega) was added to each well and plates were incubated at room temperature for 10 minutes before the luminescence was read on a Tecan M1000 plate reader. Cell Titer-Glo measures ATP levels of cells as a surrogate for cell viability. All compound-treated wells was normalized to the DMSO control averages and expressed as a % of DMSO viability. IC50 values were determined from the dose curves using Spotfire (Perkin Elmer).

[2] = tested on: MCF7 (breast adenocarcinoma); assay: Cell viability assay (Cell Titer-Glo), MCF7; assay type: cell-based, human; details: read-out: IC50 (μM) MCF7
Protocol: as §1, §2

A549 (lung carcinoma) = assay: Cell viability assay (Cell Titer-Glo), A549; assay type: cell-based, human; details: read-out: IC50 (μM) A549
Protocol: as §1, §2

[3] = tested on: HeLa (cervical adenocarcinoma); assay: Cell viability assay (Cell Titer-Glo), HeLa; assay type: cell-based, human; details: read-out: IC50 (μM) HeLa
Protocol: as §1, §2

[4] = tested on: A549, DU-145, HCT116, HeLa and MCF7 cell lines; assay: Cytotoxicity across all five cancer cell lines (text summary of Table 1); details: for decrease in potency/activity relative to (−)-communesin B (4): N8-H or N8-formyl vs N8-methyl
Protocol: as §1, §2
With samples of all known communesin alkaloids and a selection of unnatural derivatives in hand, the anticancer activity for this entire class of natural products was explored. While previous isolation reports have evaluated the activity of selected natural communesins, no comprehensive comparison of the entire class of alkaloids across multiple cell lines has been performed.

[5] = tested on: DU-145 (prostate carcinoma); assay: Cell viability assay (Cell Titer-Glo), DU-145; assay type: cell-based, human; details: read-out: IC50 (μM) DU-145
Protocol: as §1, §2

[6] = tested on: third instar larvae of silkworms; details: cited from earlier work; for insecticidal activity compared with communesin B (4): silkworms
[7] = tested on: P-388 lymphocytic leukemia cells; details: cultured mouse P-388 lymphocytic leukemia cells; cited from earlier work
[8] = tested on: human leukemia cell lines; details: array of human leukemia cell lines; cited from earlier work
vasculogenesis = details: in vivo; cited from earlier work
[9] = Homo sapiens, HCT-116, cytotoxicity after 72 h of compound treatment, Cell Titer-Glo (ATP levels)
[10] = Homo sapiens, MCF7, cytotoxicity after 72 h of compound treatment, Cell Titer-Glo (ATP levels)
[11] = Homo sapiens, A549, cytotoxicity after 72 h of compound treatment, Cell Titer-Glo (ATP levels)
[12] = Homo sapiens, cytotoxicity after 72 h of compound treatment, Cell Titer-Glo (ATP levels)
[13] = Homo sapiens, DU-145, cytotoxicity after 72 h of compound treatment, Cell Titer-Glo (ATP levels)
[14] = cytotoxicity after 72 h of compound treatment, Cell Titer-Glo (ATP levels)

With `C/C=C/C=C/C(=O)N1CC[C@@]23c4ccccc4N[C@@H]4N(C=O)c5cccc6c5[C@@]42CCN([C@@H]13)[C@@H]6[C@H]1OC1(C)C` [(+)-6, (+)-communesin D] the IC50 ([1]; Homo sapiens, HCT-116, 72 h) was 111 µM, the IC50 ([2]; Homo sapiens, MCF7, 72 h) was > 125 µM and the IC50 (A549 (lung carcinoma); Homo sapiens, A549, 72 h) was > 125 µM. The IC50 ([3]; Homo sapiens, 72 h) was 63 µM, the “decrease in potency/activity relative to (−)-communesin B (4)” value [4] was “two- to threefold decrease in activity” and the IC50 ([5]; Homo sapiens, DU-145, 72 h) was 84 µM.

In the case of `CC(=O)N1CC[C@@]23c4ccccc4N[C@@H]4N(C=O)c5cccc6c5[C@@]42CCN([C@@H]13)[C@@H]6[C@H]1OC1(C)C` [(+)-43, (+)-N8-formyl communesin E], the IC50 [1, 9] is reported as > 250 µM, the IC50 [2, 10] is reported as > 250 µM and the IC50 (A549 (lung carcinoma); [11]) is reported as > 250 µM. For the same compound, the IC50 [3, 12] was > 125 µM, the “cytotoxic potency across all cell lines (in words)” value [4] was “principally inactive” and the IC50 [5, 13] was > 250 µM.

`C/C=C/C=C/C(=O)N1CC[C@@]23c4ccccc4N[C@@H]4N(C)c5cccc6c5[C@@]42CCN([C@@H]13)[C@@H]6[C@H]1OC1(C)C` [(−)-4, (−)-communesin B] gave an IC50 [1, 9] of 60 µM, an IC50 [2, 10] of 34 µM and an IC50 (A549 (lung carcinoma); [11]) of 56 µM. The IC50 [3, 12] was 47 µM and the IC50 [5, 13] was 45 µM.

With `CC(=O)N1CC[C@@]23c4ccccc4N[C@@H]4N(C)c5cccc6c5[C@@]42CCN([C@@H]6C=C(C)C)[C@@H]13` [(−)-1, (−)-communesin F] the IC50 [1, 14] was > 125 µM, the IC50 [2, 14] was 84 µM and the IC50 (A549 (lung carcinoma); [14]) was 117 µM. The IC50 [3, 14] was 115 µM and the IC50 [5, 14] was 119 µM.

With `C/C=C/C=C/C(=O)N1CC[C@@]23c4ccccc4N[C@@H]4N(C)c5cccc6c5[C@@]42CCN([C@@H]13)[C@@H]6[C@H]1OC1(C)C` [(−)-communesin B] the “cytotoxic potency across all cell lines (in words)” value ([4]; A549, DU-145, HCT116, HeLa, MCF7) was “most potent natural isolate”.

With `CCC(=O)N1CC[C@]23c4ccccc4N[C@H]4N(C)c5cccc6c5[C@]42CCN([C@H]6[C@@H]2OC2(C)C)[C@H]13` [(−)-7, (−)-communesin G] the IC50 [1, 14] was > 125 µM, the IC50 [2, 14] was > 250 µM and the IC50 (A549 (lung carcinoma); [14]) was > 125 µM. The IC50 [3, 14] was > 125 µM, the “cytotoxic potency across all cell lines (in words)” value [4] was “principally inactive” and the IC50 [5, 14] was > 125 µM.

For `CC(=O)N1CC[C@@]23c4ccccc4N[C@@H]4N(C)c5cccc6c5[C@@]42CCN([C@@H]6C=C(C)C)[C@@H]13` [Communesin F (1), (−)-communesin F], the “insecticidal activity compared with communesin B (4)” value [6] is given as “lower insecticidal activities”.

With `CCCC(=O)N1CC[C@]23c4ccccc4N[C@H]4N(C)c5cccc6c5[C@]42CCN([C@H]6[C@@H]2OC2(C)C)[C@H]13` [(−)-8, (−)-communesin H] the IC50 [1, 14] was 109 µM, the IC50 [2, 14] was 90 µM and the IC50 (A549 (lung carcinoma); [14]) was > 125 µM. For the same compound, the IC50 [3, 14] was 82 µM and the IC50 [5, 14] was > 125 µM.

In the case of `C/C=C/C=C/C(=O)N1CC[C@@]23c4ccccc4N[C@@H]4N(C)c5cccc6c5[C@@]42CCN([C@@H]13)[C@@H]6[C@H]1OC1(C)C` [Communesin B (4), communesin B], the “LD50, insecticidal” value ([6]; third instar larvae of silkworms, oral administration) is listed as 5 μg/g of diet and the “ED50, cytotoxicity” value [7] is listed as 0.45 µg/mL (≈ 0.885 µM).

In the case of `CC(=O)N1CC[C@@]23c4ccccc4N[C@@H]4N(C)c5cccc6c5[C@@]42CCN([C@@H]13)[C@@H]6[C@H]1OC1(C)C` [(−)-2, (−)-communesin A], the IC50 [1, 9] is reported as > 250 µM, the IC50 [2, 10] is reported as > 250 µM and the IC50 (A549 (lung carcinoma); [11]) is reported as > 125 µM. For the same compound, the IC50 [3, 12] was > 125 µM, the “cytotoxic potency across all cell lines (in words)” value [4] was “principally inactive” and the IC50 [5, 13] was > 250 µM.

In the case of `C/C=C/C=C/C(=O)N1CC[C@@]23c4ccccc4N[C@@H]4N(C)c5cccc6c5[C@@]42CCN([C@@H]13)[C@@H]6[C@H]1OC1(C)C` [(−)-communesin B (4)], the “cytotoxic potency across all cell lines (in words)” value [4] is reported as “highest potency of all the natural products tested”.

In the case of `C/C=C/C=C/C(=O)N1CC[C@@]23c4ccccc4N[C@@H]4Nc5cccc6c5[C@@]42CCN([C@@H]13)[C@@H]6[C@H]1OC1(C)C` [communesin C (5), (−)-communesin C], the anti-proliferative activity [8] is listed as “moderate anti-proliferative activity”.

For `C/C=C/C=C/C(=O)N1CC[C@@]23c4ccccc4N[C@@H]4N(C=O)c5cccc6c5[C@@]42CCN([C@@H]13)[C@@H]6[C@H]1OC1(C)C` [communesin D (6), (+)-communesin D], the “insecticidal activity compared with communesin B (4)” value [6] is given as “lower insecticidal activities” and the anti-proliferative activity [8] is given as “moderate anti-proliferative activity”.

In the case of `C/C=C/C=C/C(=O)N1CC[C@@]23c4ccccc4N[C@@H]4Nc5cccc6c5[C@@]42CCN([C@@H]13)[C@@H]6[C@H]1OC1(C)C` [(−)-5, (−)-communesin C], the IC50 ([1]; Homo sapiens, HCT-116, 72 h) is reported as 106 µM, the IC50 ([2]; Homo sapiens, MCF7, 72 h) is reported as 65 µM and the IC50 (A549 (lung carcinoma); Homo sapiens, A549, 72 h) is reported as 115 µM. The IC50 ([3]; Homo sapiens, 72 h) was 94 µM, the “decrease in potency/activity relative to (−)-communesin B (4)” value [4] was “two- to threefold decrease in activity” and the IC50 ([5]; Homo sapiens, DU-145, 72 h) was 82 µM.

In the case of `CC(=O)N1CC[C@@]23c4ccccc4N[C@@H]4N(C)c5cccc6c5[C@@]42CCN([C@@H]13)[C@@H]6[C@H]1OC1(C)C` [Communesin A (2), (−)-communesin A], the “insecticidal activity compared with communesin B (4)” value [6] is given as “lower insecticidal activities”, the “ED50, cytotoxicity” value [7] is given as 3.5 µg/mL (≈ 7.67 µM) and the vasculogenetic activity (vasculogenesis) is given as “moderate vasculogenetic activity”.

With `CCC[C@H](O)CC(=O)N1CC[C@@]23c4ccccc4N[C@@H]4N(C)c5cccc6c5[C@@]42CCN([C@@H]13)[C@@H]6[C@H]1OC1(C)C` [(−)-10, (−)-communesin I] the IC50 [1, 14] was > 125 µM, the IC50 [2, 14] was 90 µM and the IC50 (A549 (lung carcinoma); [14]) was 120 µM. The IC50 [3, 14] was 120 µM and the IC50 [5, 14] was > 125 µM.

With `CC(=O)N1CC[C@@]23c4ccccc4N[C@@H]4Nc5cccc6c5[C@@]42CCN([C@@H]13)[C@@H]6[C@H]1OC1(C)C` [(−)-3, (−)-communesin E] the IC50 [1, 9] was > 500 µM, the IC50 [2, 10] was > 500 µM and the IC50 (A549 (lung carcinoma); [11]) was > 500 µM. The IC50 [3, 12] was > 500 µM, the “cytotoxic potency across all cell lines (in words)” value [4] was “principally inactive” and the IC50 [5, 13] was > 500 µM.
